Consider one compound from EP2578210A1, “Rottlerin for the treatment of pulmonary hypertension and related diseases and disorders” (ATB Innovation Ltd., priority 2011, dated 2013).

The target of one experiment is T1, Kv7.5 (Homo sapiens, UniProt Q9NR82).
T1 construct: expressed in transfected cells; host or cells: Xenopus laevis oocytes
The experiment is described as follows: Two-electrode current recording of human KCNQ (Kv7) channels heterologously expressed in Xenopus laevis oocytes. Particulars: different concentrations. The experiment is classed as cell-based. An excerpt: (§1) Rottlerin was applied at different concentrations to the expressed Kv7 channels.

For another experiment, the target named is T2, Kv7.4 (Homo sapiens, UniProt P56696).
T2 construct: expressed in transfected cells; host or cells: Xenopus laevis oocytes
T2 sequence (P56696 whole entry): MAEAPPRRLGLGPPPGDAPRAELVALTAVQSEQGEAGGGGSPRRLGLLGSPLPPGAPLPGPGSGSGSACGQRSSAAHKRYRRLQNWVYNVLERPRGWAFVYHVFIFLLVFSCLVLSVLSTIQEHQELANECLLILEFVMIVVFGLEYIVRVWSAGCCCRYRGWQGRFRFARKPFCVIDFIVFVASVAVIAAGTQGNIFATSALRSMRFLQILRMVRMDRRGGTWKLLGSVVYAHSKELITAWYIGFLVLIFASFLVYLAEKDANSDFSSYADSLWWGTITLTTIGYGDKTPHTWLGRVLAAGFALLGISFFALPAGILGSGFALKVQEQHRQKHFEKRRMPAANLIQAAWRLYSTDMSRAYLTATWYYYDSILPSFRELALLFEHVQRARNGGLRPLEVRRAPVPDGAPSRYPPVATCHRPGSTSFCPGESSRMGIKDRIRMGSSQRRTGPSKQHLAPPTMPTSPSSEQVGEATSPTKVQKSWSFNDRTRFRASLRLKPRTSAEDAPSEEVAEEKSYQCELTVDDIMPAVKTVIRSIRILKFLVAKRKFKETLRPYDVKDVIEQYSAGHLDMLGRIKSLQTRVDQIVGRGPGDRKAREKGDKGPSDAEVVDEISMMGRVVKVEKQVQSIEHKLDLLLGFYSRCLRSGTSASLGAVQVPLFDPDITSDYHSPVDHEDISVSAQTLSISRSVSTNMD
The description is as above. In kind it is cell-based.
Excerpt: as §1

Another experiment addresses T3, Kv7.1 (Homo sapiens, UniProt P51787).
T3 construct: expressed in transfected cells; host or cells: Xenopus laevis oocytes
The experiment is described as above. The experiment is classed as cell-based.
Excerpt: as §1

In the next experiment the target is T4, Kv7.1/KCNE1 (Homo sapiens, UniProt P51787).
T4 construct: expressed in transfected cells; host or cells: Xenopus laevis oocytes
T4 sequence (P51787 whole entry): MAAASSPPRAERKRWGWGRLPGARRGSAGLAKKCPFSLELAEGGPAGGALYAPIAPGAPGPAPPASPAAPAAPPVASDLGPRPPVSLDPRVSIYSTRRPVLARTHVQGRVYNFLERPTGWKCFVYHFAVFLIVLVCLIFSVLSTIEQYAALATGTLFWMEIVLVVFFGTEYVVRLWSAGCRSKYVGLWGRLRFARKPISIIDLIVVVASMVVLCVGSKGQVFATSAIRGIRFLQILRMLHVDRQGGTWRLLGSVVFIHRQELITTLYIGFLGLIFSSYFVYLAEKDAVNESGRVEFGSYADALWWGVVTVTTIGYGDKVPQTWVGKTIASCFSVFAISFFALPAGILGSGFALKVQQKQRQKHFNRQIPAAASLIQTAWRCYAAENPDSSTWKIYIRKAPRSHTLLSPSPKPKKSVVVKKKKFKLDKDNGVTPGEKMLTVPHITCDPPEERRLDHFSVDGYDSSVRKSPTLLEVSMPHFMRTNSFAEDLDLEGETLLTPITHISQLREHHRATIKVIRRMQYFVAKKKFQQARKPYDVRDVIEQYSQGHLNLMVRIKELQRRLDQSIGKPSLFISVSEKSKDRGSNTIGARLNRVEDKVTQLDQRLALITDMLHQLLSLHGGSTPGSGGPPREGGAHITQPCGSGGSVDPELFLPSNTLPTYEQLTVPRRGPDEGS
Described as above. In kind it is cell-based.
Excerpt: as §1

The next experiment concerns the target T5, Kv7.2 (Homo sapiens, UniProt O43526).
T5 construct: expressed in transfected cells; host or cells: Xenopus laevis oocytes
Described as above. In kind it is cell-based. The conditions noted are these: different concentrations.
Excerpt: as §1

The next experiment addresses T6, Kv7.3 (Homo sapiens, UniProt O43525).
T6 construct: expressed in transfected cells; host or cells: Xenopus laevis oocytes
The description is as above. The conditions noted are these: different concentrations. The experiment is classed as cell-based.
Excerpt: as §1

A further experiment deals with other PKC isozymes. The conditions noted are these: in vitro studies; cited from earlier work.
For the next experiment, the target named is PKCδ (Homo sapiens, UniProt Q05655). The conditions noted are these: in vitro studies; cited from earlier work.
Sequence of PKCδ (Q05655 whole entry): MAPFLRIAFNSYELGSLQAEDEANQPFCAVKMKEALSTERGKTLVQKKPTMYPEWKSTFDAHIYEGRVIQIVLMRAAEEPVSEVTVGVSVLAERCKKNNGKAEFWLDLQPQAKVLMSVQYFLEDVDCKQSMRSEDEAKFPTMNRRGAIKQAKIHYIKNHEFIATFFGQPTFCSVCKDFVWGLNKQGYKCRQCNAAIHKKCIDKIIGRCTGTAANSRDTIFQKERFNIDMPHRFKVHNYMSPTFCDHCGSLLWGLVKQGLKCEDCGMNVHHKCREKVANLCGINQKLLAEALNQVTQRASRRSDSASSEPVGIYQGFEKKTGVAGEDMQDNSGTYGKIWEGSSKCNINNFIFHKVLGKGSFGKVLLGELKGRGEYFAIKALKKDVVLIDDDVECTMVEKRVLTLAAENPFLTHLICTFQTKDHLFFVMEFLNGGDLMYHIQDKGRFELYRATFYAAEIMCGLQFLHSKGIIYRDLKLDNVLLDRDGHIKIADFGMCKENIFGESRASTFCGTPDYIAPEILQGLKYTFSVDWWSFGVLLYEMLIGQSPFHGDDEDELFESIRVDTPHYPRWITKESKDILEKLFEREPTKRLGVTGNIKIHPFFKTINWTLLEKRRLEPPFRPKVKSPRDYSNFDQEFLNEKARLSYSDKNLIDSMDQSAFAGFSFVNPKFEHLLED

T3 sequence (P51787 whole entry): as the sequence (P51787 whole entry) above
T6 sequence (O43525 whole entry): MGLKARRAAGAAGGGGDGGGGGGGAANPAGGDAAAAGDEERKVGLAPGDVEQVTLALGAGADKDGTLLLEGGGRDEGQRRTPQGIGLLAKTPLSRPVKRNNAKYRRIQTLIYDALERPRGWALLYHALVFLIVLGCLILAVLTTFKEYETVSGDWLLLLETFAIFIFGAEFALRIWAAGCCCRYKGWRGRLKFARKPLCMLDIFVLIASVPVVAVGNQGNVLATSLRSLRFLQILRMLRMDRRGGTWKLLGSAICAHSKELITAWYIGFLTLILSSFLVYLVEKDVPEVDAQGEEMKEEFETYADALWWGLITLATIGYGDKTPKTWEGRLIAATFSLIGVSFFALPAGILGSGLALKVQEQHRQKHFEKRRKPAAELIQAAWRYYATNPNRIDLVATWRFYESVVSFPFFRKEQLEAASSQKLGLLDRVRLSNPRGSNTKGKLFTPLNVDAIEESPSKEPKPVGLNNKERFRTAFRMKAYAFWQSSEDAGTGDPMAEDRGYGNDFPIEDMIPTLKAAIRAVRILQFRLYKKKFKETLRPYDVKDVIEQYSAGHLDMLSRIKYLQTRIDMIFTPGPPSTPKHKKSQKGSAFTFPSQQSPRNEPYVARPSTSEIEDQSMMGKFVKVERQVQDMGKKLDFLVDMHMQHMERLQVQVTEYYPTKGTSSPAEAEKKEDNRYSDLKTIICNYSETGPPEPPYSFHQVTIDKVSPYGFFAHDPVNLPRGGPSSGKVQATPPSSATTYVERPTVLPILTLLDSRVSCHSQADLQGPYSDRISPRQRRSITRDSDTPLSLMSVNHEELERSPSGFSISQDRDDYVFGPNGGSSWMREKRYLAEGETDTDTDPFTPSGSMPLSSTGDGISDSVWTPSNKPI
T5 sequence (O43526 whole entry): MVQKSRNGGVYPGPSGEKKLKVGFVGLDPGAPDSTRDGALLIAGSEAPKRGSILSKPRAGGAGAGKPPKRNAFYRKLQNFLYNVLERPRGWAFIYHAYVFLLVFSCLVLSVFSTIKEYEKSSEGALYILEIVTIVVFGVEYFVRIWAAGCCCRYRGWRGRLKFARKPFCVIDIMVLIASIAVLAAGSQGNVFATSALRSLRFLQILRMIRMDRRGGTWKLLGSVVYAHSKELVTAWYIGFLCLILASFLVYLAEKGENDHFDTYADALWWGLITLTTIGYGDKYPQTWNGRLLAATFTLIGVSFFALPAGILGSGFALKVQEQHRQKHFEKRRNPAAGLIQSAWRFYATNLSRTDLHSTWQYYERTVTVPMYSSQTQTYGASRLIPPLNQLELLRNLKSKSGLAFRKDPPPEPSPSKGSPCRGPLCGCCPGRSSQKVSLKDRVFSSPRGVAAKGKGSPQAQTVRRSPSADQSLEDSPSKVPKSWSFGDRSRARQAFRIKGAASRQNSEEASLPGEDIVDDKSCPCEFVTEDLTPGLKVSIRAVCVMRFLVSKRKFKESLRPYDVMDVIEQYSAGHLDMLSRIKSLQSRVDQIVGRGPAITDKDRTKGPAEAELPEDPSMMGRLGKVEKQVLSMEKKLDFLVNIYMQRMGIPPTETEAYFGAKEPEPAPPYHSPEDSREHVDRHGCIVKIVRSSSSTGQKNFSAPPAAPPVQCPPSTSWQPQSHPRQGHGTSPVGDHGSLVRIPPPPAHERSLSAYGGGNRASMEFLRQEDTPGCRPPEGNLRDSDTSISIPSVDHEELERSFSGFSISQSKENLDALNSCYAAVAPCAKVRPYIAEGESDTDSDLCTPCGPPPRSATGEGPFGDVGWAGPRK

For orientation: EC50 means the concentration at which the effect is half-maximal. Low values mean an effect from little substance, high ones a need for much substance. The term IC50 denotes the concentration that gives 50% inhibition. `CC(=O)c1c(O)c(C)c(O)c(Cc2c(O)c3c(c(C(=O)/C=C/c4ccccc4)c2O)OC(C)(C)C=C3)c1O` [rottlerin, 5,7-dihydroxy-2,2-dimethyl-6-(2,4,6-trihydroxy-3-methyl-5-acetylbenzyl)-8-cinnamoyl-1,2-chromene]: the effect on currents result on Kv7.5 is listed as “no significant effect”; at Kv7.4 (Kv7.4, different concentrations), “significant robust activation”; on Kv7.1 (Kv7.1, different concentrations), “significant robust activation”; on Kv7.1/KCNE1 (Kv7.1/KCNE1, different concentrations), “significant robust activation”; on Kv7.2, “no significant effect”; at Kv7.3, “no significant effect”. For the same compound, the values for the 50% effective concentration (EC50) on Kv7.4, on Kv7.1 and at Kv7.1/KCNE1 were 148 nM, 1480 nM and 4.9 µM, respectively. For the same compound, the “potency on Kv7.4 relative to Kv7.1/KCNE1” value at Kv7.4 (more potent on Kv7.4 than on cardiac and epithelial Kv7.1/KCNE1) was “about 30 fold”. Also, the half-maximal inhibitory concentration (IC50) with other PKC isozymes was 30 to 100 µM; on PKCδ, 3 to 6 µM.
